This assay has as its system GUTat 3.1 strain of the bloodstream form of T. brucei brucei. Kind of assay: alamarBlue in vitro viability test for trypanosome parasites. Format: cell-based. The settings on record: Trypanosoma brucei, 48 h of incubation, read-out: IC50, antitrypanosomal activity. The procedure:
The GUTat 3.1 strain of the bloodstream form of T. brucei brucei parasites was used in this study. Parasites were cultured in vitro according to the conditions established previously ([36]). Parasites were used when they reached a confluent concentration of 1 × 10^6 parasites/ml. Estimation of parasitemia was done with the Neubauer counting chamber. Parasites were diluted to a concentration of 3 × 10^5 parasites/ml with HM1-9 medium and were used for the various experiments.
The alamarBlue assay (Life Technologies, USA) was carried out on treated or untreated trypanosome parasites to ascertain their viability. The assay was performed in a 96-well plate following the manufacturer's instructions with modification. Briefly, 1.5 × 10^4 parasites were seeded with varied concentrations of plant material (extracts, fractions, or compounds) ranging from 0.78 μg/ml to […]. Final concentrations of EtOH and dimethyl sulfoxide (DMSO) were kept at <1% and 0.1%, respectively. After incubation of parasites with or without plant extracts or compounds for 24 h at 37°C in 5% CO2, 10% alamarBlue dye was added, and the parasites were incubated another 24 h in darkness. After a total of 48 h, the plate was read for absorbance at 540 nm using the Tecan Sunrise Wako spectrophotometer. The trend curve was drawn to obtain a 50% inhibitory concentration (IC50) of each plant material (extracts, fractions, and compounds).

With `CC1(C)CC[C@]2(C(=O)O)CC[C@]3(C)C(=CC[C@@H]4[C@@]5(C)CC[C@H](O)C(C)(C)[C@@H]5CC[C@]43C)[C@@H]2C1` [oleanolic acid], the IC50 came out at 13.7 µM.
As to `COc1c2cc(C=O)ccc2c(OC)c2c(O)cccc12` [oruwalol], the IC50 worked out at 518 µM.
For `C[C@H]1[C@H](C)CC[C@]2(C(=O)O)CC[C@]3(C)C(=CC[C@@H]4[C@@]5(C)CC[C@H](O)C(C)(C)[C@@H]5CC[C@]43C)[C@H]12` [ursolic acid] the value was 15.4 µM.

The values above are taken from PMC4879371, “Antitrypanosomal Activities and Mechanisms of Action of Novel Tetracyclic Iridoids from Morinda lucida Benth” (Antimicrobial Agents and Chemotherapy, 2016).
